Key:
[1] = tested on: Dirofilaria immitis microfilariae; test: In Vitro Assay 2: Dirofilaria immitis microfilariae (DIROIM L1) motility; conditions: 72 h
[2] = tested on: Dirofilaria immitis third-stage larvae; test: In Vitro Assay 3: Dirofilaria immitis (DIROIM L4) larval motility; conditions: 72 h
C. elegans Slo-1a = C. elegans Slo-1a (Caenorhabditis elegans, UniProt Q95V25)
C. elegans Slo-1a, sequence (Q95V25 whole entry): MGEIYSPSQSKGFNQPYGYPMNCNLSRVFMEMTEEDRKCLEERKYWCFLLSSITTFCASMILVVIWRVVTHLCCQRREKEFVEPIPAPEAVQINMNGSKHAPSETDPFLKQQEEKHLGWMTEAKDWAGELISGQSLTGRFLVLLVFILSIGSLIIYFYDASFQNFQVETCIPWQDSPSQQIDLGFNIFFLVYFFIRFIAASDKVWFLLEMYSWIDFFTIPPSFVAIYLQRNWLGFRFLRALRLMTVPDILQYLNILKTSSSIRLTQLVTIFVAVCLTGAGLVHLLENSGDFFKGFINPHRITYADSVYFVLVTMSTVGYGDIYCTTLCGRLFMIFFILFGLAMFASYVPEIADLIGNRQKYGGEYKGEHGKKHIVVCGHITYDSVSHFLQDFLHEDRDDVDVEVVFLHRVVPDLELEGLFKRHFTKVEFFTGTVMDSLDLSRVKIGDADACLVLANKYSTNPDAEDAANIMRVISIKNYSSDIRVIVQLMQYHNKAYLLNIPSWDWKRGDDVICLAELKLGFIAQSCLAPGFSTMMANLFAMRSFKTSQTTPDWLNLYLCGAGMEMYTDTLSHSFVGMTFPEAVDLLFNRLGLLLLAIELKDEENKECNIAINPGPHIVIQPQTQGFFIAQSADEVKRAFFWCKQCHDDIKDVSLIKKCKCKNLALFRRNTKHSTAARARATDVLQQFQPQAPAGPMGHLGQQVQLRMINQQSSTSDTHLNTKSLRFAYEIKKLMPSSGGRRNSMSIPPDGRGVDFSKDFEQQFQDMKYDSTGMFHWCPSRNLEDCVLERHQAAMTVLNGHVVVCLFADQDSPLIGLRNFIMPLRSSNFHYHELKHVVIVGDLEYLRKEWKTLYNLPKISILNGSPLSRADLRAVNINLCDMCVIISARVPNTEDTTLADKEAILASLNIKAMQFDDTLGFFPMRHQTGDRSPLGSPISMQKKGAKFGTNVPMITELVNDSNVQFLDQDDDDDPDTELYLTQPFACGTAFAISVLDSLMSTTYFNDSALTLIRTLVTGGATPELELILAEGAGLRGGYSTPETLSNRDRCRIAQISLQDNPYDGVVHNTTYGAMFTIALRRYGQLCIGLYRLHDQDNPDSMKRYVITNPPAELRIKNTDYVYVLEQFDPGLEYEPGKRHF
Method: In Vitro Assay 1: C. elegans Slo-1a—Action at a Recombinant C. elegans Cell Line
Cells were cultured at 37° C. and 5% CO2 in MEMalpha with Gutamax I (Invitrogen, Nr.: 32571), supplemented with 10% (v/v) heat inactivated fetal bovine serum (Invitrogen, Nr.: 10500), G418 (1 mg/ml, Invitrogen, Nr.: 10131). Cells were detached using Accutase (Sigma, Nr.: A6964).
Membrane Potential Measurements
Laboratory compound testing was performed on 384-well microtiter plates (MTPs, Greiner, Nr.: 781092). 8000 cells/well were plated onto 384-well MTPs and cultured for 20 to 24 hours at 37° C. and 5% CO2. After removal of the cell culture medium, the cells were washed once with tyrode (150 mM NaCl, 0.3 mM KCl, 2 mM CaCl2, 1 mM MgCl2, 0.8 mM NaH2PO4, 5 mM Glucose, 28 mM Hepes, pH 7.4) and then loaded with the voltage sensitive dye of the Membrane Potential Assay Kit diluted in tyrode for 1 h at room temperature.
After starting the measurement of fluorescence using a FLIPR Tetra(Molecular Devices, Exc. 510-545 nm, Emm. 565-625 nm), test compounds were added followed by the addition of KCl tyrode (final assay concentration: 70 mM KCl, 2 mM CaCl2, 1 mM MgCl2, 0.8 mM NaH2PO4, 5 mM Glucose, 28 mM Hepes, pH 7.4, including the voltage sensitive dye). The measurement was completed after 7 minutes.

Row | SMILES | EC50 [1] [µg/mL] | EC50 [2] [µg/mL] | EC50 (C. elegans Slo-1a) [nM]
1 | CC1CC(C)CN(c2c(F)ccc3c(N4CCOCC4)c(C(=O)N[C@H]4CCc5ccccc54)cnc23)C1 (stereo partly drawn) [Example 49, N-[(1S)-2,3-dihydro-1H-inden-1-yl]-8-(3,5-dimethylpiperidin-1-yl)-7-fluoro-4-(morpholin-4-yl)quinoline-3-carboxamide] | < 0.1 | < 0.1 | < 3.16
2 | CN(C)c1c(C(=O)N[C@H]2CCOc3ccccc32)cnc2c(C3CCCCCC3)cccc12 [Example 15, (S)—N-(Chroman-4-yl)-8-cycloheptyl-4-(dimethylamino)quinoline-3-carboxamide] | < 0.1 | < 0.1 | 3.16 to 31.6
3 | CC(C)CC(C)c1cccc2c(N3CCOCC3)c(C(=O)N[C@H]3CCOc4ccccc43)cnc12 (stereo partly drawn) [Example 22, N-[(4S)-3,4-dihydro-2H-chromen-4-yl]-8-(4-methylpentan-2-yl)-4-(morpholin-4-yl)quinoline-3-carboxamide] | < 0.1 | < 0.1 | 3.16 to 31.6
4 | O=C(N[C@H]1CCc2ccccc21)c1cnc2c(N3CCC(F)(F)CC3)c(F)ccc2c1N1CCOCC1 [Example 40, 8-(4,4-difluoropiperidin-1-yl)-N-[(1S)-2,3-dihydro-1H-inden-1-yl]-7-fluoro-4-(morpholin-4-yl)quinoline-3-carboxamide] | < 0.1 | < 0.1 | 3.16 to 31.6
5 | CN(C)c1c(C(=O)N[C@H]2CCOc3ccccc32)cnc2c(C3CN(C(=O)OC(C)(C)C)C3)cccc12 [Example 20, tert-Butyl(S)-3-(3-(chroman-4-ylcarbamoyl)-4-(dimethylamino)quinolin-8-yl)azetidine-1-carboxylate] | < 10 |  | 316 to 5010
6 | CC(C)c1c(C(=O)N[C@H]2CCOc3ccccc32)cnc2c(N3CCCCC3)c(F)ccc12 [Example 37, N-[(4S)-3,4-dihydro-2H-chromen-4-yl]-7-fluoro-8-(piperidin-1-yl)-4-(propan-2-yl)quinoline-3-carboxamide] | < 0.1 | < 0.1 | 3.16 to 31.6
7 | O=C(N[C@H]1CCc2ccccc21)c1cnc2c(N3CCCCC3)c(F)ccc2c1N1CCOCC1 [Example 43, N-[(1S)-2,3-dihydro-1H-inden-1-yl]-7-fluoro-4-(morpholin-4-yl)-8-(piperidin-1-yl)quinoline-3-carboxamide] | < 0.1 | < 0.1 | 3.16 to 31.6
8 | CN(C)c1c(C(=O)N[C@H]2CCOc3ccccc32)cnc2c(N3CCCCC3)cccc12 [Example 30, N-[(4S)-3,4-dihydro-2H-chromen-4-yl]-4-(dimethylamino)-8-(piperidin-1-yl)quinoline-3-carboxamide] | < 1 |  | 31.6 to 316
9 | C[C@@H]1CN(c2cccc3c(N4CCOCC4)c(C(=O)N[C@H]4CCOc5ccccc54)cnc23)C[C@H](C)O1 [Example 31, N-[(4S)-3,4-dihydro-2H-chromen-4-yl]-8-[(2R,6S)-2,6-dimethylmorpholin-4-yl]-4-(morpholin-4-yl)quinoline-3-carboxamide] | < 10 |  | 31.6 to 316
10 | CC(C)c1c(C(=O)N[C@H]2CCOc3ccccc32)cnc2c(N3C[C@H](C)C[C@H](C)C3)c(F)ccc12 [Example 38, N-[(4S)-3,4-dihydro-2H-chromen-4-yl]-8-[(3R,5S)-3,5-dimethylpiperidin-1-yl]-7-fluoro-4-(propan-2-yl)quinoline-3-carboxamide] | < 0.1 | < 0.1 | < 3.16
11 | CC(C)c1cccc2c(N(C)C)c(C(=O)N[C@H]3CCOc4ccccc43)cnc12 [Example 10, (S)—N-(Chroman-4-yl)-4-(dimethylamino)-8-isopropylquinoline-3-carboxamide] | < 1 |  | 31.6 to 316
12 | CN(C)c1c(C(=O)N[C@H]2CCOc3ccccc32)cnc2c(C3CCCCC3)cccc12 [Example 12, (S)—N-(Chroman-4-yl)-8-cyclohexyl-4-(dimethylamino)quinoline-3-carboxamide] | < 0.1 |  | 3.16 to 31.6
13 | COCCCc1cccc2c(N(C)C)c(C(=O)N[C@H]3CCOc4ccccc43)cnc12 [Example 4, (S)—N-(Chroman-4-yl)-4-(dimethylamino)-8-(3-methoxypropyl)quinoline-3-carboxamide] | < 10 |  | 316 to 5010
14 | CN(C)c1c(C(=O)N[C@H]2CCOc3ccccc32)cnc2c(C3=CCC(C(F)(F)F)CC3)cccc12 (stereo partly drawn) [Example 16, N—((S)-Chroman-4-yl)-4-(dimethylamino)-8-(4-(trifluoromethyl)cyclohex-1-en-1-yl)quinoline-3-carboxamide] | < 1 |  | 3.16 to 31.6
15 | O=C(N[C@H]1CCOc2ccccc21)c1cnc2c(N3CCOCC3)cccc2c1N1CCOCC1 [Example 24, N-[(4S)-3,4-dihydro-2H-chromen-4-yl]-4,8-di(morpholin-4-yl)quinoline-3-carboxamide] | < 10 |  | 316 to 5010
16 | C[C@@H]1C[C@H](C)CN(c2cccc3c(N4CCOCC4)c(C(=O)N[C@H]4CCOc5ccccc54)cnc23)C1 [Example 33, N-[(4S)-3,4-dihydro-2H-chromen-4-yl]-8-[(3R,5S)-3,5-dimethylpiperidin-1-yl]-4-(morpholin-4-yl)quinoline-3-carboxamide] | < 0.1 | < 0.1 | < 3.16
17 | CN(C)c1c(C(=O)N[C@H]2CCOc3ccccc32)cnc2c(C3=CCC(C)(C)CC3)cccc12 [Example 18, (S)—N-(Chroman-4-yl)-4-(dimethylamino)-8-(4,4-dimethylcyclohex-1-en-1-yl)quinoline-3-carboxamide] | < 10 | < 1 | 31.6 to 316
18 | CN(C)c1c(C(=O)N[C@H]2CCOc3ccccc32)cnc2c(C3CCC(C)(C)CC3)cccc12 [Example 19, (S)—N-(Chroman-4-yl)-4-(dimethylamino)-8-(4,4-dimethylcyclohexyl)quinoline-3-carboxamide] | < 1 |  | 31.6 to 316
19 | CN(C)c1c(C(=O)N[C@H]2CCc3ccccc32)cnc2c(N3CCCC3)c(F)ccc12 [Example 42, N-[(1S)-2,3-dihydro-1H-inden-1-yl]-4-(dimethylamino)-7-fluoro-8-(pyrrolidin-1-yl)quinoline-3-carboxamide] | < 10 |  | 31.6 to 316
20 | CN(C)c1c(C(=O)N[C@H]2CCOc3ccccc32)cnc2c(C3CCC(C(F)(F)F)CC3)cccc12 (stereo partly drawn) [Example 17, N—((S)-Chroman-4-yl)-4-(dimethylamino)-8-(4-(trifluoromethyl)cyclohexyl)quinoline-3-carboxamide] | < 0.1 |  | 3.16 to 31.6
21 | C[C@@H]1C[C@H](C)CN(c2cccc3c(N(C)C)c(C(=O)N[C@H]4CCOc5ccccc54)cnc23)C1 [Example 34, N-[(4S)-3,4-dihydro-2H-chromen-4-yl]-4-(dimethylamino)-8-[(3R,5S)-3,5-dimethylpiperidin-1-yl]quinoline-3-carboxamide] | < 1 | < 0.1 | < 3.16
22 | O=C(N[C@H]1CCc2ccccc21)c1cnc2c(N3CCOCC3)c(F)ccc2c1N1CCOCC1 [Example 45, N-[(1S)-2,3-dihydro-1H-inden-1-yl]-7-fluoro-4,8-di(morpholin-4-yl)quinoline-3-carboxamide] | < 1 |  | 31.6 to 316
23 | CC(C)c1c(C(=O)N[C@H]2CCOc3ccccc32)cnc2c(N3CCCCC3)cccc12 [Example 35, N-[(4S)-3,4-dihydro-2H-chromen-4-yl]-8-(piperidin-1-yl)-4-(propan-2-yl)quinoline-3-carboxamide] | < 0.1 |  | 31.6 to 316
24 | O=C(N[C@H]1CCc2ccccc21)c1cnc2c(N3CCCC3)c(F)ccc2c1N1CCOCC1 [Example 48, N-[(1S)-2,3-dihydro-1H-inden-1-yl]-7-fluoro-4-(morpholin-4-yl)-8-(pyrrolidin-1-yl)quinoline-3-carboxamide] | < 1 |  | 3.16 to 31.6
25 | CN(C)c1c(C(=O)N[C@H]2CCc3ccccc32)cnc2c(N3CCOCC3)c(F)ccc12 [Example 47, N-[(1S)-2,3-dihydro-1H-inden-1-yl]-4-(dimethylamino)-7-fluoro-8-(morpholin-4-yl)quinoline-3-carboxamide] | < 10 |  | 316 to 5010

Source: patent publication US11254661B2, “Quinoline derivatives for treating infections with helminths” (Bayer Animal Health GMBH, priority 2017, dated 2022)
